The results in this text go back to patent US20200060276A1, “THIAZOLE COMPOUND AND HERBICIDE” (OAT Agrio Co., Ltd., priority 2017, published 2020).

Common to all, as to type: in vivo
Test [1] deals with Echinochloa crus-galli (L.) P. Beauv. var. formosensis Ohwi. The test is described as follows: Test for Herbicidal Effect in Flooding Treatment (#2), ECHDG at 2-2.5 leaf stage. Conditions: for ECHDG (2-2.5L) #2 herbicidal effect (growth inhibition rating 0-5): flooding treatment #2, 2-2.5 leaf stage; for ECHDG (2-2.5L) #2 herbicidal effect (growth inhibition grade): flooding treatment at 2-2.5 leaf stage, dose 0.2 kg/ha, visual observation on day 21. The method, then:
(#2) Test for Herbicidal Effect in Flooding Treatment: Styrol cups each having an opening diameter of 13 cm (about 130 cm^2) were respectively filled with muddy soil (500 ml). Water (about 300 ml) was mixed with the soil such that the soil was flooded. After the soil stood still for 24 hours, Echinochloa crus-galli (L.) P. Beauv. var. formosensis Ohwi was seeded. When the Echinochloa crus-galli (L.) P. Beauv. var. formosensis Ohwi grew to reach 2-2.5 leaf stage, chemical solutions were dropped on the entire surface of treatment sections, so that each section is treated with 1 ml of the respective chemical solution (a dose of 0.2 kg/ha). Each of the chemical solutions was prepared by dissolving associated one of the compounds of the present invention in acetone, followed by dilution with water containing Tween 80 g. After the treatment, the plants were grown in a glasshouse. On day 21, a survey was conducted on the herbicidal activity by visual observation, and evaluation was made according to the following criteria. 0: Growth inhibition effect is less than 10%. 1: Growth inhibition effect is equal to or greater than 10%, and less than 30%. 2; Growth inhibition effect is equal to or greater than 30%, and less than 50%. 3: Growth inhibition effect equal to or greater than 50%, and less than 70%. 4: Growth inhibition effect is equal to or greater than 70%, and less than 90%. 5: Growth inhibition effect is equal to or greater than 90%, or complete withering is achieved. ECHDG=Echinochloa crus-galli (L.) P. Beauv. var. formosensis Ohwi, MONVA=Monochoria vaginalis, SCIJU=Scirpus juncoides, CYMIC=Cyperus microiria. The herbicidal activity of the following comparative compounds A and B (the compounds disclosed Japanese Unexamined Patent Publication No. 2003-096059) were evaluated in a manner pursuant to Test Example 1. (#2).

In the next test the test system is Scirpus juncoides. The test is described as follows: Test for Herbicidal Effect in Flooding Treatment (#1), SCIJU. As to conditions: for SCIJU #1 herbicidal effect (growth inhibition rating 0-5): flooding treatment #1; for SCIJU #1 herbicidal effect (growth inhibition grade): flooding treatment at seeding, dose 2 kg/ha, visual observation on day 21. The method, then:
(§1) (#1) Test for Herbicidal Effect in Flooding Treatment: Styrol cups each having an opening diameter of 8 cm (about 52 cm^2) were respectively filled with soil (45 ml) which had been passed through a sieve (2 mm). Water (about 115 ml) was mixed with the soil such that the soil was flooded. After the soil stood still for 24 hours, Monochoria vaginalis, Echinochloa crus-galli (L.) P. Beauv. var. formosensis Ohwi, Cyperus difformis (umbrella sedge), and Scirpus juncoides were seeded. Each of the compounds of the present invention was dissolved in acetone, and the obtained product was then diluted with water containing Tween 80®. Each of the resultant chemical solutions was dropped on the entire surface of an associated one of treatment sections, so that each section was treated with 1 ml of the respective chemical solution (a dose of 2 kg/ha). After the treatment, the plants were grown in a glasshouse. On day 21, a survey was conducted on the herbicidal activity by visual observation, and evaluation was made according to the following criteria. 0: Growth inhibition effect is less than 10%. 1: Growth inhibition effect is equal to or greater than 10%, and less than 30%. 2; Growth inhibition effect is equal to or greater than 30%, and less than 50%. 3: Growth inhibition effect equal to or greater than 50%, and less than 70%. 4: Growth inhibition effect is equal to or greater than 70%, and less than 90%. 5: Growth inhibition effect is equal to or greater than 90%, or complete withering is achieved. ECHDG=Echinochloa crus-galli (L.) P. Beauv. var. formosensis Ohwi, MONVA=Monochoria vaginalis, SCIJU=Scirpus juncoides, CYMIC=Cyperus microiria.

For test [2], the system named is Echinochloa crus-galli (L.) P. Beauv. var. formosensis Ohwi. In words: Test for Herbicidal Effect in Flooding Treatment (#1), ECHDG. As to conditions: for ECHDG #1 herbicidal effect (growth inhibition rating 0-5): flooding treatment #1; for ECHDG #1 herbicidal effect (growth inhibition grade): flooding treatment at seeding, dose 2 kg/ha, visual observation on day 21. On the procedure:
as §1

Take `O=S(=O)(Oc1cccc(F)c1C[S+]([O-])c1ncc(Cl)s1)C(F)(F)F` (stereo not shown) [Compound 1B-29]: in test [1], the “ECHDG (2-2.5L) #2 herbicidal effect (growth inhibition rating 0-5)” value is 5 (Growth inhibition effect is equal to or greater than 90%, or complete withering is achieved). Moreover, the “SCIJU #1 herbicidal effect (growth inhibition rating 0-5)” value in the test on Scirpus juncoides is given as 5 (Growth inhibition effect is equal to or greater than 90%, or complete withering is achieved). Moreover, the “ECHDG #1 herbicidal effect (growth inhibition rating 0-5)” value in test [2] was 5 (Growth inhibition effect is equal to or greater than 90%, or complete withering is achieved).

For `[O-][S+](Cc1c(Cl)cccc1OC(F)(F)F)c1ncc(Cl)s1` (stereo not shown) [Compound 1B-6], the “ECHDG (2-2.5L) #2 herbicidal effect (growth inhibition rating 0-5)” value in test [1] is given as 5 (Growth inhibition effect is equal to or greater than 90%, or complete withering is achieved). For the same molecule, in the test on Scirpus juncoides, the “SCIJU #1 herbicidal effect (growth inhibition rating 0-5)” value is recorded as 5 (Growth inhibition effect is equal to or greater than 90%, or complete withering is achieved). Moreover, the “ECHDG #1 herbicidal effect (growth inhibition rating 0-5)” value in test [2] is reported as 5 (Growth inhibition effect is equal to or greater than 90%, or complete withering is achieved).

As for `O=S(=O)(Cc1c(F)cccc1OC(F)(F)F)c1ncc(Cl)s1` [Compound 1C-48], in test [1], the “ECHDG (2-2.5L) #2 herbicidal effect (growth inhibition grade)” value is given as 5 (Growth inhibition effect is equal to or greater than 90%, or complete withering is achieved). Further, the “SCIJU #1 herbicidal effect (growth inhibition grade)” value with Scirpus juncoides is given as 5 (Growth inhibition effect is equal to or greater than 90%, or complete withering is achieved). Moreover, the “ECHDG #1 herbicidal effect (growth inhibition grade)” value in test [2] is recorded as 5 (Growth inhibition effect is equal to or greater than 90%, or complete withering is achieved).

`[O-][S+](Cc1c(Cl)cccc1OC(F)(F)F)c1ncc(Br)s1` (stereo not shown) [Compound 1B-22]: the “ECHDG (2-2.5L) #2 herbicidal effect (growth inhibition rating 0-5)” value in test [1] was 5 (Growth inhibition effect is equal to or greater than 90%, or complete withering is achieved). In the test on Scirpus juncoides, the “SCIJU #1 herbicidal effect (growth inhibition rating 0-5)” value is recorded as 5 (Growth inhibition effect is equal to or greater than 90%, or complete withering is achieved).

Consider `O=S(=O)(Cc1ccccc1OC(F)F)c1ncc(Br)s1` [Compound 1C-152], for which the “ECHDG (2-2.5L) #2 herbicidal effect (growth inhibition grade)” value in test [1] is 5 (Growth inhibition effect is equal to or greater than 90%, or complete withering is achieved). Besides, the “SCIJU #1 herbicidal effect (growth inhibition grade)” value with Scirpus juncoides is recorded as 5 (Growth inhibition effect is equal to or greater than 90%, or complete withering is achieved). Also, the “ECHDG #1 herbicidal effect (growth inhibition grade)” value in test [2] is 5 (Growth inhibition effect is equal to or greater than 90%, or complete withering is achieved).

As to `CC(C)(C)[Si](C)(C)Oc1cccc(F)c1CS(=O)(=O)c1ncc(Cl)s1` [Compound 1C-178], the “SCIJU #1 herbicidal effect (growth inhibition grade)” value in the test on Scirpus juncoides was 4 (Growth inhibition effect is equal to or greater than 70%, and less than 90%). In test [2], the “ECHDG #1 herbicidal effect (growth inhibition grade)” value is 5 (Growth inhibition effect is equal to or greater than 90%, or complete withering is achieved).

For `O=C(O)COc1cccc(F)c1CS(=O)(=O)c1ncc(Cl)s1` [Compound 1C-183], the “ECHDG (2-2.5L) #2 herbicidal effect (growth inhibition grade)” value in test [1] was 3 (Growth inhibition effect equal to or greater than 50%, and less than 70%). Besides, the “SCIJU #1 herbicidal effect (growth inhibition grade)” value with Scirpus juncoides was 5 (Growth inhibition effect is equal to or greater than 90%, or complete withering is achieved). Further, the “ECHDG #1 herbicidal effect (growth inhibition grade)” value in test [2] is on record as 5 (Growth inhibition effect is equal to or greater than 90%, or complete withering is achieved).

As for `O=S(=O)(Cc1c(F)cccc1OCF)c1ncc(Cl)s1` [Compound 1C-179], the “ECHDG (2-2.5L) #2 herbicidal effect (growth inhibition grade)” value in test [1] is 5 (Growth inhibition effect is equal to or greater than 90%, or complete withering is achieved). Besides, in the test with Scirpus juncoides, the “SCIJU #1 herbicidal effect (growth inhibition grade)” value is 5 (Growth inhibition effect is equal to or greater than 90%, or complete withering is achieved). Also, in test [2], the “ECHDG #1 herbicidal effect (growth inhibition grade)” value was 5 (Growth inhibition effect is equal to or greater than 90%, or complete withering is achieved).

In the case of `[O-][S+](Cc1c(Cl)cccc1OC(F)F)c1ncc(Cl)s1` (stereo not shown) [Compound 1B-4], the “ECHDG (2-2.5L) #2 herbicidal effect (growth inhibition rating 0-5)” value in test [1] was 5 (Growth inhibition effect is equal to or greater than 90%, or complete withering is achieved). Further, the “SCIJU #1 herbicidal effect (growth inhibition rating 0-5)” value with Scirpus juncoides was 5 (Growth inhibition effect is equal to or greater than 90%, or complete withering is achieved). Besides, in test [2], the “ECHDG #1 herbicidal effect (growth inhibition rating 0-5)” value is 5 (Growth inhibition effect is equal to or greater than 90%, or complete withering is achieved).

For `[O-][S+](Cc1ccccc1OC(F)(F)C(F)F)c1ncc(Br)s1` (stereo not shown) [Compound 1B-23], the “ECHDG (2-2.5L) #2 herbicidal effect (growth inhibition rating 0-5)” value in test [1] was 4 (Growth inhibition effect is equal to or greater than 70%, and less than 90%). Moreover, the “ECHDG #1 herbicidal effect (growth inhibition rating 0-5)” value in test [2] was 5 (Growth inhibition effect is equal to or greater than 90%, or complete withering is achieved).

For the molecule `O=S(=O)(Cc1ccccc1OC(F)(F)C(F)F)c1ncc(Cl)s1` [Compound 1C-57], the “ECHDG (2-2.5L) #2 herbicidal effect (growth inhibition grade)” value in test [1] is given as 5 (Growth inhibition effect is equal to or greater than 90%, or complete withering is achieved). Further, in the test on Scirpus juncoides, the “SCIJU #1 herbicidal effect (growth inhibition grade)” value is on record as 5 (Growth inhibition effect is equal to or greater than 90%, or complete withering is achieved). Moreover, the “ECHDG #1 herbicidal effect (growth inhibition grade)” value in test [2] is 5 (Growth inhibition effect is equal to or greater than 90%, or complete withering is achieved).

As to `O=C(CCl)Oc1cccc(F)c1CS(=O)(=O)c1ncc(Cl)s1` [Compound 1C-173], the “SCIJU #1 herbicidal effect (growth inhibition grade)” value in the test with Scirpus juncoides was 4 (Growth inhibition effect is equal to or greater than 70%, and less than 90%).

As for `O=S(=O)(Cc1ccccc1OC(F)(F)C(F)F)c1ncc(Br)s1` [Compound 1C-163], in the test on Scirpus juncoides, the “SCIJU #1 herbicidal effect (growth inhibition grade)” value is recorded as 5 (Growth inhibition effect is equal to or greater than 90%, or complete withering is achieved). In addition, in test [2], the “ECHDG #1 herbicidal effect (growth inhibition grade)” value is reported as 5 (Growth inhibition effect is equal to or greater than 90%, or complete withering is achieved).

For the molecule `COc1ccc(CS(=O)(=O)c2ncc(Cl)s2)c(F)c1` [Compound 1C-1], the “SCIJU #1 herbicidal effect (growth inhibition grade)” value in the test with Scirpus juncoides is 4 (Growth inhibition effect is equal to or greater than 70%, and less than 90%). Also, the “ECHDG #1 herbicidal effect (growth inhibition grade)” value in test [2] is on record as 5 (Growth inhibition effect is equal to or greater than 90%, or complete withering is achieved).

On to `CCS(=O)(=O)c1cccc(F)c1C[S+]([O-])c1ncc(Cl)s1` (stereo not shown) [Compound 1B-28], for which the “SCIJU #1 herbicidal effect (growth inhibition rating 0-5)” value in the test on Scirpus juncoides is 4 (Growth inhibition effect is equal to or greater than 70%, and less than 90%). The “ECHDG #1 herbicidal effect (growth inhibition rating 0-5)” value in test [2] was 5 (Growth inhibition effect is equal to or greater than 90%, or complete withering is achieved).

Take `COC(=O)COc1cccc(F)c1CS(=O)(=O)c1ncc(Cl)s1` [Compound 1C-181]: the “SCIJU #1 herbicidal effect (growth inhibition grade)” value with Scirpus juncoides is 4 (Growth inhibition effect is equal to or greater than 70%, and less than 90%). Also, the “ECHDG #1 herbicidal effect (growth inhibition grade)” value in test [2] was 5 (Growth inhibition effect is equal to or greater than 90%, or complete withering is achieved).

Turning to `O=S(=O)(Cc1ccc(F)c(Oc2ccccc2)c1)c1ncc(Cl)s1` [Compound 1C-86], in test [1], the “ECHDG (2-2.5L) #2 herbicidal effect (growth inhibition grade)” value was 1 (Growth inhibition effect is equal to or greater than 10%, and less than 30%). In addition, the “ECHDG #1 herbicidal effect (growth inhibition grade)” value in test [2] is 5 (Growth inhibition effect is equal to or greater than 90%, or complete withering is achieved).

As for `CCOC(=O)C(F)Oc1cccc(F)c1CS(=O)(=O)c1ncc(Cl)s1` (stereo not shown) [Compound 1C-182], the “SCIJU #1 herbicidal effect (growth inhibition grade)” value with Scirpus juncoides is 3 (Growth inhibition effect equal to or greater than 50%, and less than 70%). Besides, the “ECHDG #1 herbicidal effect (growth inhibition grade)” value in test [2] is listed as 5 (Growth inhibition effect is equal to or greater than 90%, or complete withering is achieved).
